# Laboratory results: patent US9290476B2, “Methylene linked quinolinyl modulators of RORγt” (Janssen Pharmaceutica NV, priority 2012, dated 2016)
# Columns and labels:
# [1] = biological target: human RORγt ligand binding domain (RORγt LBD) (Homo sapiens (Human), UniProt P51449); experiment: RORγt ThermoFluor assay (thermal shift binding affinity); conditions: estimated from thermal shift
# Summary of the method: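 Thermal shift used 0.065 mg/mL RORγt LBD with 60 μM 1,8-ANS in 100 mM Hepes pH 7.0, 10 mM NaCl, 2.5 mM GSH and 0.002% Tween-20, heated at 1 °C/min. Fluorescence was excited at 380–400 nm and emission read at 500 nm.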
# human RORγt LBD = human RORγt LBD (Homo sapiens (Human), UniProt P51449); experiment: RORγt reporter assay (GAL4-RORγt LBD luciferase in HEK293T cells); assay type: cell-based
# human RORγt LBD, sequence (P51449 258-518): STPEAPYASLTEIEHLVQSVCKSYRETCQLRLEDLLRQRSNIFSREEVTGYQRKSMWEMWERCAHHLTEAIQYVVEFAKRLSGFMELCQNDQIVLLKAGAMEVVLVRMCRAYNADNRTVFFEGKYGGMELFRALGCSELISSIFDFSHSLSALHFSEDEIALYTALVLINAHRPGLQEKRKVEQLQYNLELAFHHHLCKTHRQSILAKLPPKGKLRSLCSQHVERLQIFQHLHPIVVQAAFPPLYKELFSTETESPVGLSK
# Summary of the method: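 HEK293T cells transiently co-transfected with GAL4-DBD–wild-type human RORγt LBD (pBIND) and GAL4-responsive firefly luciferase reporter (pGL4.31); renilla luciferase from pBIND normalises transfection/viability. Cells in phenol-red-free DMEM, 5% lipid-reduced FCS, treated with compound 24 h. Firefly/renilla ratio plotted against compound concentration.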
# [2] = test system: IL-17 production by CD4 T cells; experiment: Human Th17 assay (IL-17 production by CD4 T cells under Th17 differentiation); assay type: cell-based; conditions: human CD4+ T cells, IL-17 after 3 days; read-out: Human Th17 Assay, IC50 μM
# Summary of the method: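 Healthy-donor peripheral CD4+ T cells (1.5×10^5/well) preincubated 1 h with titrated compound (0.2% DMSO), then differentiated with anti-CD3/CD28 beads, anti-IL4, anti-IFNγ, IL1β, IL23, IL6, TGFβ and IL2 for 3 days at 37 °C. Supernatant IL-17 quantified by MSD electrochemiluminescence against a standard curve; IC50 fitted.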
# human RORγt ligand binding domain (RORγt LBD), sequence (P51449 other isoform, or with tags, fused parts or gaps): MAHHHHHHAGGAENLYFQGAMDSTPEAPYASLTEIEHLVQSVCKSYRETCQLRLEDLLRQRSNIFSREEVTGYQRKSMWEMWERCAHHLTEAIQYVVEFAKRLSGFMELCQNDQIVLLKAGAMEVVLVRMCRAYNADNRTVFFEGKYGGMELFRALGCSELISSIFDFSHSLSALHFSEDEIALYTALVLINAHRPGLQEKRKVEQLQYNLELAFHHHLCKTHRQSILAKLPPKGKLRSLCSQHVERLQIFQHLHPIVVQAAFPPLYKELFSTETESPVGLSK
compound,measurement,setting,value
"Cn1cncc1C(O)(c1ccc(Cl)cc1)c1ccc2nc(C#N)c(Cc3ccc(-n4cccn4)cc3)c(C#N)c2c1 (single isomer, unassigned) [Example 71B, 3-(4-(1H-Pyrazol-1-yl)benzyl)-6-((4-chlorophenyl)(hydroxy)(1-methyl-1H-imidazol-5-yl)methyl)quinoline-2,4-dicarbonitrile]",Kd,[1],0.0016 µM
same,IC50,"human RORγt LBD; HEK293T cells, 24 hours compound treatment",0.011 µM
same,inhibition at 6 µM,"human RORγt LBD; HEK-293T, read-out: RORγt reporter Assay, % inhibition @ 6 μM, HEK293T cells, 6 μM",105%
same,IC50,[2],0.011 µM
